Measured values taken from US20230286958A1, “PLASMA KALLIKREIN INHIBITORS” (Merck Sharp & Dohme LLC, priority 2020, published 2023).

Columns and labels:
[1] = target: Human plasma kallikrein (Homo sapiens (Human), UniProt P03952); assay: Kallikrein Assay (fluorogenic substrate Acetyl-K-P-R-AFC); assay type: biochemical; settings: Plasma Kallikrein (PKal)
Outline: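 Ki is derived from IC50 with the Cheng-Prusoff equation, and IC50 from the inflection point of a four-parameter logistic curve. The rate of AFC release is read with 0.5 nM purified enzyme and […] substrate at room temperature or 37 °C.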

[2] = target: human Factor XIa (Homo sapiens (Human), UniProt P03951); assay: Factor XIa Assay (fluorogenic substrate GPR-AFC); assay type: biochemical; settings: Factor XIa (FXIa)
Chain of human Factor XIa (P03951 388-625 limits assumed): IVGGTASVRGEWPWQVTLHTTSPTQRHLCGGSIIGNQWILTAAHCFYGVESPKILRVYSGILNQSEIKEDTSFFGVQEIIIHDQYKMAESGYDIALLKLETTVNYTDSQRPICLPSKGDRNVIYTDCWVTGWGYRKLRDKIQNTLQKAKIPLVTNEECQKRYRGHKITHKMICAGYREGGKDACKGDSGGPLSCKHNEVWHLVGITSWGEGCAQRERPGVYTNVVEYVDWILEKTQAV
Chain of human Factor XIa (P03951 19-387 partner limits assumed): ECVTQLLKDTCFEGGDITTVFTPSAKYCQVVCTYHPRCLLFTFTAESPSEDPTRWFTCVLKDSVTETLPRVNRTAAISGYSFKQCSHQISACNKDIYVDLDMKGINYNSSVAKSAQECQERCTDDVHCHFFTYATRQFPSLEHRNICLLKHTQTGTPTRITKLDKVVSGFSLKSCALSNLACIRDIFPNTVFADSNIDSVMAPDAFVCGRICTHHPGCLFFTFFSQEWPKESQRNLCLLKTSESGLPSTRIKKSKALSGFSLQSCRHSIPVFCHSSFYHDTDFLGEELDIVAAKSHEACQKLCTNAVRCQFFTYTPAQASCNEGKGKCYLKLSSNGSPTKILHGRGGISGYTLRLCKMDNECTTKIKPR

Chain of Human plasma kallikrein (P03952 391-638): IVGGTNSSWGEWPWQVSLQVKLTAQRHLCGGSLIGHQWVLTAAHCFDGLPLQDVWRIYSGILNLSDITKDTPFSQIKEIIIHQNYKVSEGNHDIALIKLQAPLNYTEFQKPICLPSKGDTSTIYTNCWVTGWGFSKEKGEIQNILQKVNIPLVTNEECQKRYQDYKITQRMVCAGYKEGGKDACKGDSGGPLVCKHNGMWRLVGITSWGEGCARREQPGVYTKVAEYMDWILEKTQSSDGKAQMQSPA
Chain of Human plasma kallikrein (P03952 20-390 partner): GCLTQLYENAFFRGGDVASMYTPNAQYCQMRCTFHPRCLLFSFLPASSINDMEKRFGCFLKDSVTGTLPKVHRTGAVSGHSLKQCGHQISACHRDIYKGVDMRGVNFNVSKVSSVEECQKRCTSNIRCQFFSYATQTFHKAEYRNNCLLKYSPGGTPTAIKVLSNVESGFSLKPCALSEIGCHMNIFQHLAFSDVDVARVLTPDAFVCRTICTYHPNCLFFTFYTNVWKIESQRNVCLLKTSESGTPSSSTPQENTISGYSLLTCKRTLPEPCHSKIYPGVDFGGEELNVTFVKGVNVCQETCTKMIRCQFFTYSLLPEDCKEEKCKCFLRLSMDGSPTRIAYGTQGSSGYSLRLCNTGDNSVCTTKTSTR

Structure (SMILES) | IC50 [1] [nM] | IC50 [2] [nM]
CCc1ncc(-c2c(C(F)F)ccc(Cl)c2F)nc1C(=O)Nc1cnn(C(C)c2cc(C)c(N3C[C@H]4C[C@H]4C3=O)nn2)c1 (single isomer, unassigned) [Example 238, 6-(3-Chloro-6-(difluoromethyl)-2-fluorophenyl)-3-ethyl-N-(1-((R or S)-1-(5-methyl-6-((1R,5S)-2-oxo-3-azabicyclo[3.1.0]hexan-3-yl)pyridazin-3-yl)ethyl)-1H-pyrazol-4-yl)pyrazine-2-carboxamide] | 6.3 | 734
Cc1ncc(-c2c(C(F)F)ccc(Cl)c2F)nc1C(=O)Nc1cnn(C(C)c2ncc(N3C[C@H]4C[C@H]4C3=O)c(C)c2F)c1 (single isomer, unassigned) [Example 244, 6-(3-Chloro-6-(difluoromethyl)-2-fluorophenyl)-N-(1-((R or S)-1-(3-fluoro-4-methyl-5-((1R,5S)-2-oxo-3-azabicyclo[3.1.0]hexan-3-yl)pyridin-2-yl)ethyl)-1H-pyrazol-4-yl)-3-methylpyrazine-2-carboxamide] | 46.8 | > 10000
Cc1ncc(-c2c(C(F)F)ccc(Cl)c2F)nc1C(=O)Nc1cnn(C(C)c2cnc(N3C[C@H]4C[C@H]4C3=O)c3c2OC(F)(F)O3)c1 (single isomer, unassigned) [Example 246, 6-(3-Chloro-6-(difluoromethyl)-2-fluorophenyl)-N-(1-((R or S)-1-(2,2-difluoro-4-((1R,5S)-2-oxo-3-azabicyclo[3.1.0]hexan-3-yl)-[1,3]dioxolo[4,5-c]pyridin-7-yl)ethyl)-1H-pyrazol-4-yl)-3-methylpyrazine-2-carboxamide] | 6 | 6560
CC(c1cnc(N2C[C@H]3C[C@H]3C2=O)c2c1OC(F)(F)O2)n1cc(NC(=O)c2cncc(-c3c(C(F)F)ccc(Cl)c3F)n2)cn1 (single isomer, unassigned) [Example 248, 6-(3-Chloro-6-(difluoromethyl)-2-fluorophenyl)-N-(1-((R or S)-1-(2,2-difluoro-4-((1R,5S)-2-oxo-3-azabicyclo[3.1.0]hexan-3-yl)-[1,3]dioxolo[4,5-c]pyridin-7-yl)ethyl)-1H-pyrazol-4-yl)pyrazine-2-carboxamide] | 22.3 | > 10000
CC(c1cnc(N2C[C@H]3C[C@H]3C2=O)c2c1OCO2)n1cc(NC(=O)c2cncc(-c3c(C(F)F)ccc(Cl)c3F)n2)cn1 (single isomer, unassigned) [Example 250, 6-(3-Chloro-6-(difluoromethyl)-2-fluorophenyl)-N-(1-((R or S)-1-(4-((1R,5S)-2-oxo-3-azabicyclo[3.1.0]hexan-3-yl)-[1,3]dioxolo[4,5-c]pyridin-7-yl)ethyl)-1H-pyrazol-4-yl)pyrazine-2-carboxamide] | 3.2 | 1320
Cc1ncc(-c2c(C(F)F)ccc(Cl)c2F)nc1C(=O)Nc1cnn(C(C)c2cnc(N3C[C@H]4C[C@H]4C3=O)c3c2OCO3)c1 (single isomer, unassigned) [Example 253, 6-(3-Chloro-6-(difluoromethyl)-2-fluorophenyl)-3-methyl-N-(1-((S or R)-1-(4-((1R,5S)-2-oxo-3-azabicyclo[3.1.0]hexan-3-yl)-[1,3]dioxolo[4,5-c]pyridin-7-yl)ethyl)-IH-pyrazol-4-yl)pyrazine-2-carboxamide] | 2.2 | 733
CC(c1cnc(N2C[C@H]3C[C@H]3C2=O)nc1CO)n1cc(NC(=O)c2cncc(-c3c(C(F)F)ccc(Cl)c3F)n2)cn1 (stereo in doubt) [Example 169, 6-(3-Chloro-6-(difluoromethyl)-2-fluorophenyl)-N-(1-(1-(4-(hydroxymethyl)-2-(2-oxo-3-azabicyclo[3.1.0]hexan-3-yl)pyrimidin-5-yl)ethyl)-1H-pyrazol-4-yl)pyrazine-2-carboxamide] | 15.2 | 2200

Now those with a lower IC50 [1], led by results:

IC50 [1] [nM] | IC50 [2] [nM] | Structure (SMILES)
1.8 | 1230 | CCc1ncc(-c2c(C(F)F)ccc(Cl)c2F)nc1C(=O)Nc1cnn(C(C)c2cc(C)c(N3C[C@H]4C[C@H]4C3=O)nn2)c1 (single isomer, unassigned) [Example 239, 6-(3-Chloro-6-(difluoromethyl)-2-fluorophenyl)-3-ethyl-N-(1-((S or R)-1-(5-methyl-6-((1R,5S)-2-oxo-3-azabicyclo[3.1.0]hexan-3-yl)pyridazin-3-yl)ethyl)-1H-pyrazol-4-yl)pyrazine-2-carboxamide]
0.4 | 985 | COc1ncc(-c2c(OC(F)F)ccc(Cl)c2F)nc1C(=O)Nc1cnn(C(C)c2cnc(N3C[C@H]4C[C@H]4C3=O)c(C)n2)c1 (single isomer, unassigned) [Example 240, 6-(3-Chloro-6-(difluoromethoxy)-2-fluorophenyl)-3-methoxy-N-(1-((R or S)-1-(6-methyl-5-((1R,5S)-2-oxo-3-azabicyclo[3.1.0]hexan-3-yl)pyrazin-2-yl)ethyl)-1H-pyrazol-4-yl)pyrazine-2-carboxamide]
0.7 | 377 | COc1ncc(-c2c(OC(F)F)ccc(Cl)c2F)nc1C(=O)Nc1cnn(C(C)c2cnc(N3C[C@H]4C[C@H]4C3=O)c(C)n2)c1 (single isomer, unassigned) [Example 241, 6-(3-Chloro-6-(difluoromethoxy)-2-fluorophenyl)-3-methoxy-N-(1-((S or R)-1-(6-methyl-5-((1R,5S)-2-oxo-3-azabicyclo[3.1.0]hexan-3-yl)pyrazin-2-yl)ethyl)-1H-pyrazol-4-yl)pyrazine-2-carboxamide]
0.8 | > 10000 | Cc1ncc(-c2c(C(F)F)ccc(Cl)c2F)nc1C(=O)Nc1cnn(C(C)c2ncc(N3C[C@H]4C[C@H]4C3=O)c(C)c2C)c1 (single isomer, unassigned) [Example 242, 6-(3-Chloro-6-(difluoromethyl)-2-fluorophenyl)-N-(1-((R or S)-1-(3,4-dimethyl-5-((1R,5S)-2-oxo-3-azabicyclo[3.1.0]hexan-3-yl)pyridin-2-yl)ethyl)-1H-pyrazol-4-yl)-3-methylpyrazine-2-carboxamide]
0.6 | > 10000 | Cc1c(N2C[C@H]3C[C@H]3C2=O)cnc(C(C)n2cc(NC(=O)c3cncc(-c4c(C(F)F)ccc(Cl)c4F)n3)cn2)c1C (single isomer, unassigned) [Example 243, 6-(3-Chloro-6-(difluoromethyl)-2-fluorophenyl)-N-(1-((R or S)-1-(3,4-dimethyl-5-((1R,5S)-2-oxo-3-azabicyclo[3.1.0]hexan-3-yl)pyridin-2-yl)ethyl)-1H-pyrazol-4-yl)pyrazine-2-carboxamide]
0.9 | > 10000 | Cc1ncc(-c2c(C(F)F)ccc(Cl)c2F)nc1C(=O)Nc1cnn(C(C)c2ncc(N3C[C@H]4C[C@H]4C3=O)c(C)c2F)c1 (single isomer, unassigned) [Example 245, 6-(3-Chloro-6-(difluoromethyl)-2-fluorophenyl)-N-(1-((S or R)-1-(3-fluoro-4-methyl-5-((1R,5S)-2-oxo-3-azabicyclo[3.1.0]hexan-3-yl)pyridin-2-yl)ethyl)-1H-pyrazol-4-yl)-3-methylpyrazine-2-carboxamide]
0.8 | 9240 | Cc1ncc(-c2c(C(F)F)ccc(Cl)c2F)nc1C(=O)Nc1cnn(C(C)c2cnc(N3C[C@H]4C[C@H]4C3=O)c3c2OC(F)(F)O3)c1 (single isomer, unassigned) [Example 247, 6-(3-Chloro-6-(difluoromethyl)-2-fluorophenyl)-N-(1-((S or R)-1-(2,2-difluoro-4-((1R,5S)-2-oxo-3-azabicyclo[3.1.0]hexan-3-yl)-[1,3]dioxolo[4,5-c]pyridin-7-yl)ethyl)-1H-pyrazol-4-yl)-3-methylpyrazine-2-carboxamide]
2.1 | > 10000 | CC(c1cnc(N2C[C@H]3C[C@H]3C2=O)c2c1OC(F)(F)O2)n1cc(NC(=O)c2cncc(-c3c(C(F)F)ccc(Cl)c3F)n2)cn1 (single isomer, unassigned) [Example 249, 6-(3-Chloro-6-(difluoromethyl)-2-fluorophenyl)-N-(1-((S or R)-1-(2,2-difluoro-4-((1R,5S)-2-oxo-3-azabicyclo[3.1.0]hexan-3-yl)-[1,3]dioxolo[4,5-c]pyridin-7-yl)ethyl)-1H-pyrazol-4-yl)pyrazine-2-carboxamide]
1 | 2480 | CC(c1cnc(N2C[C@H]3C[C@H]3C2=O)c2c1OCO2)n1cc(NC(=O)c2cncc(-c3c(C(F)F)ccc(Cl)c3F)n2)cn1 (single isomer, unassigned) [Example 251, 6-(3-Chloro-6-(difluoromethyl)-2-fluorophenyl)-N-(1-((R or S)-1-(4-((1R,5S)-2-oxo-3-azabicyclo[3.1.0]hexan-3-yl)-[1,3]dioxolo[4,5-c]pyridin-7-yl)ethyl)-1H-pyrazol-4-yl)pyrazine-2-carboxamide]
0.9 | 1830 | Cc1ncc(-c2c(C(F)F)ccc(Cl)c2F)nc1C(=O)Nc1cnn(C(C)c2cnc(N3C[C@H]4C[C@H]4C3=O)c3c2OCO3)c1 (single isomer, unassigned) [Example 252, 6-(3-Chloro-6-(difluoromethyl)-2-fluorophenyl)-3-methyl-N-(1-((R or S)-1-(4-((1R,5S)-2-oxo-3-azabicyclo[3.1.0]hexan-3-yl)-[1,3]dioxolo[4,5-c]pyridin-7-yl)ethyl)-1H-pyrazol-4-yl)pyrazine-2-carboxamide]
1.4 | 157 | CC(O)c1ncc(-c2c(C(F)F)ccc(Cl)c2F)nc1C(=O)Nc1cnn(Cc2cnc(N3C[C@H]4C[C@H]4C3=O)c3c2OCO3)c1 (single isomer, unassigned) [Example 254, 6-(3-Chloro-6-(difluoromethyl)-2-fluorophenyl)-3-((R or S)-1-hydroxyethyl)-N-(1-((4-((1R,5S)-2-oxo-3-azabicyclo[3.1.0]hexan-3-yl)-[1,3]dioxolo[4,5-c]pyridin-7-yl)methyl)-1H-pyrazol-4-yl)pyrazine-2-carboxamide]
